According to ChEMBL document CHEMBL6083240, “Design, synthesis and biological evaluation of arylpropylamine derivatives as potential multi-target antidepressants” (Bioorg Med Chem, 2024):
Calls of active or inactive are those of the source. No cut-off for these calls is given here.

Assays:
[1] = target: 5-hydroxytryptamine receptor 6 (Homo sapiens, UniProt P50406); assay: Binding affinity to 5-HT6 receptor (unknown origin)
[2] = Tmax in CD1 mouse at 15 mg/kg, po measured upto 24 hrs by LC-MS analysis; format: ADME, organism-based; settings: in vivo
D(3) dopamine receptor = D(3) dopamine receptor (Homo sapiens, UniProt P35462); assay: Binding affinity to D3 receptor (unknown origin)
D(3) dopamine receptor, sequence (P35462 whole entry): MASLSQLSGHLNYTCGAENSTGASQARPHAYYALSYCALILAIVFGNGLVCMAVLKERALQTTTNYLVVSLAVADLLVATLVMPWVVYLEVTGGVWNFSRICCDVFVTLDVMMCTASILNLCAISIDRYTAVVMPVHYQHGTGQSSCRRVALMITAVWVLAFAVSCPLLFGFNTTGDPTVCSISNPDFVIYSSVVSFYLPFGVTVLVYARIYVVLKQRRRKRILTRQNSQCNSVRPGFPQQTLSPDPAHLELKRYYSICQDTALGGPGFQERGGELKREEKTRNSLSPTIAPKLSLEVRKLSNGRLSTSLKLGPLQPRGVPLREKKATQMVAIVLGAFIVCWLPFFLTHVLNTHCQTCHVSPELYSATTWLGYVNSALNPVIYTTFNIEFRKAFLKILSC

[3] = Oral bioavailability in CD1 mouse at 15 mg/kg measured upto 24 hrs by LC-MS analysis; format: ADME, organism-based; settings: in vivo
[4] = Tmax in CD1 mouse at 2 mg/kg, iv measured upto 10 hrs by LC-MS analysis; format: ADME, organism-based; settings: in vivo
[5] = target: Sodium-dependent serotonin transporter (Rattus norvegicus) (UniProt P31652); assay: Agonist activity at rat cerebral cortex membrane SERT at 10 uM incubated for 10 mins in presence of [3H]5-HT relative to control; format: cell membranes
Sodium-dependent serotonin transporter (Rattus norvegicus), sequence (P31652 whole entry): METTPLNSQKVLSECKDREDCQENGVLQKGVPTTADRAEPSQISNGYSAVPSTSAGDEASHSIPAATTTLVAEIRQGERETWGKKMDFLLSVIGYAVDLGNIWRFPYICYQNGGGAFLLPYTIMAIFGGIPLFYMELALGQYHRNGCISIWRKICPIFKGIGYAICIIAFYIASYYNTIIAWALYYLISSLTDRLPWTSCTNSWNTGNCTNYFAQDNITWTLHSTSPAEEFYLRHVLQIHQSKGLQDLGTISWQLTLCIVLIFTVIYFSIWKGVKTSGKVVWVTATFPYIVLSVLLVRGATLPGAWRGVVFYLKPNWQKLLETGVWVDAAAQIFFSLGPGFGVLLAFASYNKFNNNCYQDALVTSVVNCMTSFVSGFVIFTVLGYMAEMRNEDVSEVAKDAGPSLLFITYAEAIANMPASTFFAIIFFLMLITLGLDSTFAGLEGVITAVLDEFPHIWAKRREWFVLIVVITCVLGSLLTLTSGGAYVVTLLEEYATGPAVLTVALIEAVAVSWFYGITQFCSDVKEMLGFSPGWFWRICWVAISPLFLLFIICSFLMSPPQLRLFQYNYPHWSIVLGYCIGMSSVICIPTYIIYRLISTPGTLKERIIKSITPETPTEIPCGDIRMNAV

[6] = target: T1, Alpha-1A adrenergic receptor (Rattus norvegicus, UniProt P43140); assay: Displacement of [3H]-prazosin from adrenergic alpha-1 receptor in rat cerebral cortex incubated for 60 mins by liquid scintillation counting method; format: toxicity, tissue-based
T1 sequence (P43140 whole entry): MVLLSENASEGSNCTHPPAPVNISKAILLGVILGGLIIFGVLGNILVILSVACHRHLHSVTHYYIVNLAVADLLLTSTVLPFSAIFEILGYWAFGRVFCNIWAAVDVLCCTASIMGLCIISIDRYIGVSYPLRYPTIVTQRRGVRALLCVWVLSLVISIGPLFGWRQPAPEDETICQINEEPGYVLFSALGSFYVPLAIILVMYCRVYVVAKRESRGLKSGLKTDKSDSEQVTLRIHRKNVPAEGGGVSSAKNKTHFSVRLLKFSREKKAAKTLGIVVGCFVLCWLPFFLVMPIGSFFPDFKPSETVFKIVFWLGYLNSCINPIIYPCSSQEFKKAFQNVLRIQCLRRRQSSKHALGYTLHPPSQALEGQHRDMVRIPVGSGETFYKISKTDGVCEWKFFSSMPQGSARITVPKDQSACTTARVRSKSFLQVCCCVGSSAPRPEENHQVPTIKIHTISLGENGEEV

histamine H1 receptor = assay: Displacement of [3H]-pyrilamine from H1 receptor in guinea pig cerebellum membrane incubated for 60 mins by liquid scintillation counting method; format: toxicity, cell membranes, Cavia porcellus; settings: probe [3H]-pyrilamine
[7] = target: Sodium-dependent serotonin transporter (Rattus norvegicus, UniProt P31652); assay: Antagonist activity at rat cerebral cortex membrane SERT incubated for 10 mins in presence of [3H]5-HT; format: cell membranes
Sodium-dependent serotonin transporter, sequence (P31652 whole entry): as the sequence (P31652 whole entry) above

[8] = AUC(0 to infinity) in CD1 mouse at 2 mg/kg, iv measured upto 10 hrs by LC-MS analysis; format: ADME, organism-based; settings: in vivo
[9] = target: Muscarinic acetylcholine receptor M1 (Homo sapiens, UniProt P11229); assay: Binding affinity to M1 receptor (unknown origin)
Muscarinic acetylcholine receptor M1, sequence (P11229 whole entry): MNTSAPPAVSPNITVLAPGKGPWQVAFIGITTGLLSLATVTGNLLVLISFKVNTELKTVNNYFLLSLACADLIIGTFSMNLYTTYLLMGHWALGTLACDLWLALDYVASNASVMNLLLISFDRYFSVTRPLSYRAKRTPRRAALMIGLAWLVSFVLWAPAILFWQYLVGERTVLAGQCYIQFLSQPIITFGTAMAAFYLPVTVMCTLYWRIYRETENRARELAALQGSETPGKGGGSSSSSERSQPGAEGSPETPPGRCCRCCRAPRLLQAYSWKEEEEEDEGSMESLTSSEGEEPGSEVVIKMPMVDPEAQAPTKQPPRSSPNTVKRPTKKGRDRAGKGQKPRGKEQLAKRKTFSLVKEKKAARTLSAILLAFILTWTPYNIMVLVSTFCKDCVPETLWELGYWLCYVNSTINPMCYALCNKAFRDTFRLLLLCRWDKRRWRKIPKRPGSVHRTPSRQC

[10] = Cmax in CD1 mouse at 15 mg/kg, po measured upto 24 hrs by LC-MS analysis; format: ADME, organism-based; settings: in vivo
Mus musculus = assay: Antidepressant activity in Kunming mouse chronic unpredictable mild stress model assessed as increase in sucrose preference at 2 to 6 mg/kg, IG measured after 3 weeks; format: functional, organism-based; settings: dose 2-6 mg/kg
[11] = target: Glutamate [NMDA] receptor; assay: Binding affinity to NMDA receptor (unknown origin); format: protein-complex assay, Homo sapiens
Rattus norvegicus [12] = assay: Antidepressant activity against ig dosed ACTH-induced treatment resistant depression in Sprague-Dawley rat model assessed as reduction in immobility time by forced swimming test; format: functional; settings: po
[13] = target: Sodium-dependent serotonin transporter (Rattus norvegicus) (UniProt P31652); assay: Antagonist activity at rat cerebral cortex membrane SERT at 10 uM incubated for 10 mins in presence of [3H]5-HT relative to control; format: cell membranes; design: scale not given: the % may be the effect or the level left; settings: filed as antagonist
[14] = target: Sodium-dependent dopamine transporter (Homo sapiens, UniProt Q01959); assay: Binding affinity to DAT (unknown origin)
Transporter = Transporter (Rattus norvegicus, UniProt Q63380); assay: Antagonist activity at rat cerebral cortex membrane NET incubated for 10 mins in presence of [3H]-NE; format: cell membranes
Transporter, sequence (Q63380 whole entry): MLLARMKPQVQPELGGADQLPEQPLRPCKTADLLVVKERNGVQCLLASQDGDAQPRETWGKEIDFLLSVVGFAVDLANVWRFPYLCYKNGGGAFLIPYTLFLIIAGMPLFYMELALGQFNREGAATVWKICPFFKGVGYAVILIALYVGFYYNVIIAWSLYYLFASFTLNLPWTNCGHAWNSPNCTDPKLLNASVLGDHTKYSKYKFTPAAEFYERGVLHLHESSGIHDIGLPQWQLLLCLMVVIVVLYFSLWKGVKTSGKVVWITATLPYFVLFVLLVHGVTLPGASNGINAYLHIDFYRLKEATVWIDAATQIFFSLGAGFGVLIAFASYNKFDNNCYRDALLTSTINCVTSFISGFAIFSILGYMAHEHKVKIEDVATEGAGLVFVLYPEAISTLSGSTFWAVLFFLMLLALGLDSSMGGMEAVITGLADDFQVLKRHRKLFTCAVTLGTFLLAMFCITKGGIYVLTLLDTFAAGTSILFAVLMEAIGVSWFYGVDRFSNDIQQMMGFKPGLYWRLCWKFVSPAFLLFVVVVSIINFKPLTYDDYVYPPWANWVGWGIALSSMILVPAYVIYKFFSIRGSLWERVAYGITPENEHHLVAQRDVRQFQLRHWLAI

D(2) dopamine receptor = D(2) dopamine receptor (Homo sapiens, UniProt P14416); assay: Binding affinity to D2 receptor (unknown origin)
D(2) dopamine receptor, sequence (P14416 whole entry): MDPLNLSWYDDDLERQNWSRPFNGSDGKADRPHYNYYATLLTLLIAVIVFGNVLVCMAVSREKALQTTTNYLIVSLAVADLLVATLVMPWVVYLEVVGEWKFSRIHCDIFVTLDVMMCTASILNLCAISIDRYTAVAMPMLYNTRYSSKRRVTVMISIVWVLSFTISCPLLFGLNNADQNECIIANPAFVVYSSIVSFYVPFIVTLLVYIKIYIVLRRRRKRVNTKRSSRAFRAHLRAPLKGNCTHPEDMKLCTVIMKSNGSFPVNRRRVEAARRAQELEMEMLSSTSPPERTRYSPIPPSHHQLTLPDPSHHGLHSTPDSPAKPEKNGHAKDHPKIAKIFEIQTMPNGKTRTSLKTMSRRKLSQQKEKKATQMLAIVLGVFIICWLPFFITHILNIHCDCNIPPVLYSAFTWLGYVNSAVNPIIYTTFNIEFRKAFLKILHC

[15] = target: T2, 5-hydroxytryptamine receptor 2C (Rattus norvegicus, UniProt P08909); assay: Displacement of [3H]-mesulergine from 5-HT2C in rat cerebral cortex incubated for 15 mins by liquid scintillation counting method; format: tissue-based
T2 sequence (P08909 whole entry): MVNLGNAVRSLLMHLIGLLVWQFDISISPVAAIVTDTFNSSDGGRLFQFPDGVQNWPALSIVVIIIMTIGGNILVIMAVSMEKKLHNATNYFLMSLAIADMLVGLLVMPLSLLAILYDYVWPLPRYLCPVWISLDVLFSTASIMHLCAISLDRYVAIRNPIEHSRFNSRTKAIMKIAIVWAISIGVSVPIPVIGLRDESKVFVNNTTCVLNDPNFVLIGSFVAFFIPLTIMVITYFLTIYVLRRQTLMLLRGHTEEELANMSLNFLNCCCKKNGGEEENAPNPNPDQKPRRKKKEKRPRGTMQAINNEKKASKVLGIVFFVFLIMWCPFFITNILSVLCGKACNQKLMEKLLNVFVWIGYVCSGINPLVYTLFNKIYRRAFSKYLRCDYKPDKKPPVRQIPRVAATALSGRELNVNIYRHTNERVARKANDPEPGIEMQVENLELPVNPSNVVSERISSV

[16] = AUC(0 to infinity) in CD1 mouse at 15 mg/kg, po measured upto 24 hrs by LC-MS analysis; format: ADME, organism-based; settings: in vivo
[17] = target: 5-hydroxytryptamine receptor 2A (Homo sapiens, UniProt P28223); assay: Antagonist activity at 5-HT2A in HEK293 cells at 10 uM incubated for 60 mins by FLIPR assay relative to control; format: cell-based; design: scale not given: the % may be the effect or the level left; settings: filed as antagonist
5-hydroxytryptamine receptor 2A (Homo sapiens, UniProt P28223), sequence (P28223 whole entry): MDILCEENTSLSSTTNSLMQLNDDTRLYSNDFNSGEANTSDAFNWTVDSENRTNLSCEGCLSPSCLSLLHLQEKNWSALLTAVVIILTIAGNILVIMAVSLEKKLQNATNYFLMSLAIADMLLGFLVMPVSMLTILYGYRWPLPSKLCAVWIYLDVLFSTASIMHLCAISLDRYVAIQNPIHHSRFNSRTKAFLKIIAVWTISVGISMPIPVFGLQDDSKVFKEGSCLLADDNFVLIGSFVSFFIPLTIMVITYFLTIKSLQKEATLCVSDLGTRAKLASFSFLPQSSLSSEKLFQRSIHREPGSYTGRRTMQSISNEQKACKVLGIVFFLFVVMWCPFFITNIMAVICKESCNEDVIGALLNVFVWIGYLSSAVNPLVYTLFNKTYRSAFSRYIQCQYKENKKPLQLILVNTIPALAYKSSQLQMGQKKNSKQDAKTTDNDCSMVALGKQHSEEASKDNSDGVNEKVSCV

Histamine H2 receptor = Histamine H2 receptor (Homo sapiens, UniProt P25021); assay: Binding affinity to H2 receptor (unknown origin)
Histamine H2 receptor, sequence (P25021 whole entry): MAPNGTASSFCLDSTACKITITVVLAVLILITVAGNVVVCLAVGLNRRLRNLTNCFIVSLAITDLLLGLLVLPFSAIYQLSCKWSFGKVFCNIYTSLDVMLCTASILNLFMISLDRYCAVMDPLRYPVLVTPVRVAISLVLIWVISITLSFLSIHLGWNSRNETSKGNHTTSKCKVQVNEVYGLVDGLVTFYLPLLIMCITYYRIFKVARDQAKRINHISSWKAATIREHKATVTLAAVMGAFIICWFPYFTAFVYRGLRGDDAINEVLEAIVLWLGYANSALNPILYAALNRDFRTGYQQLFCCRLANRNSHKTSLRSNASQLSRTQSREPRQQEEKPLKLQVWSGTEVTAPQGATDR

[18] = target: 5-hydroxytryptamine receptor 1A (Homo sapiens, UniProt P08908); assay: Binding affinity to 5-HT1A receptor (unknown origin)
5-hydroxytryptamine receptor 1A, sequence (P08908 whole entry): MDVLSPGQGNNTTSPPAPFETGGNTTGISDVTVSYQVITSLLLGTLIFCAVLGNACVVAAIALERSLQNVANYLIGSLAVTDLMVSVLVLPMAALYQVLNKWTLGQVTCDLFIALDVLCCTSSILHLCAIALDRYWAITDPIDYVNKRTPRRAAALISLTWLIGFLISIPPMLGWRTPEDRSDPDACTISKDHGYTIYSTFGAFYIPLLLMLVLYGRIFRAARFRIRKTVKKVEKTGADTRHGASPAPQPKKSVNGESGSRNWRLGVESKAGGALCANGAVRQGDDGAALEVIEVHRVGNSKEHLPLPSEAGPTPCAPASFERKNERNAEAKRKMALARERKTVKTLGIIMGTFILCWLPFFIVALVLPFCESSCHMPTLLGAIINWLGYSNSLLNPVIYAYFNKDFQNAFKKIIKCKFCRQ

[19] = target: 5-hydroxytryptamine receptor 2A (Rattus norvegicus, UniProt P14842); assay: Displacement of [3H]-ketanserin from 5-HT2A in rat cerebral cortex incubated for 15 mins by liquid scintillation counting method; format: tissue-based
Rattus norvegicus [20] = assay: Antidepressant activity against ACTH-induced treatment resistant depression in Sprague-Dawley rat model assessed as reduction in immobility time at 20 to 40 mg/kg, IG by forced swimming test; format: functional, organism-based; settings: dose 20-40 mg/kg
Histamine H4 receptor = Histamine H4 receptor (Homo sapiens, UniProt Q9H3N8); assay: Binding affinity to H4 receptor (unknown origin)
Histamine H4 receptor, sequence (Q9H3N8 whole entry): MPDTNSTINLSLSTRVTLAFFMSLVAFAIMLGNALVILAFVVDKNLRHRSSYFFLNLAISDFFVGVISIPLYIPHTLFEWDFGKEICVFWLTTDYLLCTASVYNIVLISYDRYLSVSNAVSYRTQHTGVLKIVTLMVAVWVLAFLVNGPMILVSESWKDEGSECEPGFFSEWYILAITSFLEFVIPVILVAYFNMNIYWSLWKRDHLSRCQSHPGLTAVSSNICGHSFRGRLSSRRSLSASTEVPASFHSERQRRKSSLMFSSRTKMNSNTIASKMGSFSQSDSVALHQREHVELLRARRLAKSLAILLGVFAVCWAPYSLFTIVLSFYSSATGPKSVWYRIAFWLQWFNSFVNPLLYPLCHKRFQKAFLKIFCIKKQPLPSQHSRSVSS

**Q.** With CN(C)CC[C@@H](Oc1cccc2c1OCO2)c1ccc(F)cc1.O=C(O)C(=O)O as the molecule, how does the Ki [1] read?
**A.** The Ki was > 1 µM.

**Q.** What about the Tmax [2] of the same molecule?
**A.** Its Tmax is 30 min.

**Q.** And the Ki (D(3) dopamine receptor)?
**A.** Its Ki is > 1 µM.

**Q.** And the bioavailability [3]?
**A.** The bioavailability was 20.3%.

**Q.** What about the Tmax [4] of the same molecule?
**A.** Its Tmax is 4.8 min.

**Q.** What about the Activity [5] of the same molecule?
**A.** The Activity was 2.2%.

**Q.** And the Ki [6]?
**A.** Its Ki is 1.45 µM.

**Q.** And the Ki at 60 min (histamine H1 receptor)?
**A.** Its Ki at 60 min is 1 µM.

**Q.** What about the IC50 [7] of the same molecule?
**A.** Its IC50 is 0.0232 µM.

**Q.** And the AUC(0-inf) [8]?
**A.** Its AUC(0-inf) is 310 ng·h/mL.

**Q.** What about the Ki [9] of the same molecule?
**A.** Its Ki is 0.64 µM.

**Q.** And the Cmax [10]?
**A.** The Cmax was 144 ng/mL.

**Q.** What about the Activity (Mus musculus) of the same molecule?
**A.** Its Activity is “Active”.

**Q.** And the Ki [11]?
**A.** Its Ki is > 1 µM.

**Q.** And the ED50 (Rattus norvegicus [12])?
**A.** Its ED50 is 23.1 mg/kg.

**Q.** What about the Activity [13] of the same molecule?
**A.** The Activity was 99.7%.

**Q.** What about the Ki [14] of the same molecule?
**A.** Its Ki is > 1 µM.

**Q.** What about the IC50 (Transporter) of the same molecule?
**A.** The IC50 was 0.087 µM.

**Q.** And the Ki (D(2) dopamine receptor)?
**A.** The Ki was > 1 µM.

**Q.** What about the Ki [15] of the same molecule?
**A.** The Ki was 0.0157 µM.

**Q.** What about the AUC(0-inf) [16] of the same molecule?
**A.** Its AUC(0-inf) is 474 ng·h/mL.

**Q.** What about the Activity [17] of the same molecule?
**A.** The Activity was 100%.

**Q.** And the Ki (Histamine H2 receptor)?
**A.** The Ki was > 1 µM.

**Q.** And the Ki [18]?
**A.** Its Ki is > 1 µM.

**Q.** And the Ki [19]?
**A.** The Ki was 0.0264 µM.

**Q.** What about the Activity (Rattus norvegicus [20]) of the same molecule?
**A.** Its Activity is “Active”.

**Q.** What about the Ki (Histamine H4 receptor) of the same molecule?
**A.** Its Ki is > 1 µM.
